Where a SMILES comes first, the peptide text is derived from it. Bridges are numbered along the chain shown (N, C = ends). [ ]: non-standard residue; d: D form. The star is where a group is joined. hPhe(3-Cl-4-CF3) = N[C@@H](CCc1ccc(C(F)(F)F)c(Cl)c1)C(=O)O; NPrPhe(4-CF3) = CCCN[C@@H](Cc1ccc(C(F)(F)F)cc1)C(=O)O; NEtPhe(4-Me) = CCN[C@@H](Cc1ccc(C)cc1)C(=O)O; NMeGly(cPent) = CN[C@H](C(=O)O)C1CCCC1; NMeD = CN[C@@H](CC(=O)O)C(=O)O; NMeL = CN[C@@H](CC(C)C)C(=O)O; Morpholide = C1CN(*)CCO1; Ac5c = NC1(C(=O)O)CCCC1; NEtG = CCNCC(=O)O; Sar = CNCC(=O)O
Key:
[1] = target: GDP-bound HRAS wild-type protein (Homo sapiens, UniProt P01112); assay: Binding to HRAS by surface plasmon resonance (SPR), Single Cycle Kinetics
Chain of GDP-bound HRAS wild-type protein (P01112 whole entry): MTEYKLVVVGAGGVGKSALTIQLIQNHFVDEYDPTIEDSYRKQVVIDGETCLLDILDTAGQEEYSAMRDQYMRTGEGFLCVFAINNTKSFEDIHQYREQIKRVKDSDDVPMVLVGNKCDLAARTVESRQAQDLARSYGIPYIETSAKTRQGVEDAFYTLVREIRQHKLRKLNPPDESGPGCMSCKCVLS

[2] = target: GDP-bound NRAS wild-type protein (Homo sapiens, UniProt P01111); assay: Binding to NRAS by surface plasmon resonance (SPR), Single Cycle Kinetics
Chain of GDP-bound NRAS wild-type protein (P01111 whole entry): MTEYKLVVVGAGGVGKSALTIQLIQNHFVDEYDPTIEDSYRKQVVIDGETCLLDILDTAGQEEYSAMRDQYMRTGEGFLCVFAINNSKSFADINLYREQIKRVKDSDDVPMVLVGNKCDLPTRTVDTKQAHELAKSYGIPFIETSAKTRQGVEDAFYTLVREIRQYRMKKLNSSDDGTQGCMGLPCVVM

[3] = KD ratio, GDP-bound HRAS wild-type vs GDP-bound KRAS wild-type, SPR
[4] = KD ratio, GDP-bound NRAS wild-type vs GDP-bound KRAS wild-type, SPR
[5] = SPR, GDP-bound wild-type proteins

Structure (SMILES): CC[C@H](C)[C@@H]1NC(=O)[C@H](CC(C)C)N(C)C(=O)C[C@@H](C(=O)N2CCOCC2)N(C)C(=O)[C@H](C2CCCC2)N(C)C(=O)C2(CCCC2)NC(=O)[C@@H]2CCCN2C(=O)[C@H](CCc2ccc(C(F)(F)F)c(Cl)c2)NC(=O)CN(CC)C(=O)[C@H](Cc2ccc(C)cc2)N(CC)C(=O)CN(CC)C(=O)CN(C)C1=O [PP0030] ([NMeL]I[Sar][NEtG][NEtPhe(4-Me)][NEtG][hPhe(3-Cl-4-CF3)]P[Ac5c][NMeGly(cPent)][NMeD]-Morpholide; lactam N-11)
- HRAS/KRAS (ratio of KD for GDP-bound HRAS wild-type to KD for KRAS) ([1]; SPR): C (A compound having a KD ratio of 0.1 or more and less than 3 is denoted as C)
- NRAS/KRAS (ratio of KD for GDP-bound NRAS wild-type to KD for KRAS) ([2]; SPR): C (A compound having a KD ratio of 0.1 or more and less than 3 is denoted as C)

Structure (SMILES): CCC(CC)[C@H]1C(=O)N(C)[C@H](C(=O)N(C)C)CC(=O)N(C)[C@@H](COC)C(=O)N[C@@H]([C@@H](C)CC)C(=O)N2CCC[C@H]2C(=O)N(C)[C@H]2C/C=C\CCN(C2=O)[C@@H](Cc2ccc(C(F)F)cc2)C(=O)N(C)CC(=O)N[C@@H](CCc2ccc(Cl)c(Cl)c2)C(=O)N2C[C@H](OC3CCCC3)C[C@H]2C(=O)NC2(CC(C)(C)C2)C(=O)N1C [PP2652]
- HRAS/KRAS (ratio of KD value with respect to GDP-bound HRAS wild-type protein to KD value with respect to KRAS) ([1]; class symbols): A (a compound having 10 or more and less than 20 is denoted as A)
- NRAS/KRAS (ratio of KD value with respect to GDP-bound NRAS wild-type protein to KD value with respect to KRAS) ([2]; class symbols): AA (a compound having 20 or more is denoted as AA)

Structure (SMILES): CCO[C@@H]1C[C@H]2C(=O)NC3(CCC3)C(=O)N(C)[C@@H](C3CCCC3)C(=O)N(C)[C@H](C(=O)N3CCOCC3)CC(=O)N(C)[C@@H](Cc3ccsc3)C(=O)N[C@@H]([C@@H](C)CC)C(=O)N(C)CC(=O)N(C)[C@H]3CCCCCN(C3=O)[C@@H](Cc3ccc(C(F)(F)F)cc3)C(=O)N(C)CC(=O)N[C@@H](CCc3cc(F)c(C(F)(F)F)c(F)c3)C(=O)N2C1 [PP1164]
- HRAS/KRAS (ratio of KD value with respect to HRAS to KD value with respect to KRAS) [1, 3]: B (a compound having 3 or more and less than 10 is denoted as B)
- NRAS/KRAS (ratio of KD value with respect to NRAS to KD value with respect to KRAS) [2, 4]: B (a compound having 3 or more and less than 10 is denoted as B)

Structure (SMILES): CCO[C@@H]1C[C@H]2C(=O)NC3(CCC3)C(=O)N(C)[C@@H](C3CCCC3)C(=O)N(C)[C@H](C(=O)N(C)C)CC(=O)N(C)[C@@H](Cc3ccc(Cl)c(Cl)c3)C(=O)N[C@@H]([C@@H](C)CC)C(=O)N(C)CC(=O)N(C)[C@H]3CCCCCN(C3=O)[C@@H](Cc3ccc(C(F)(F)F)cc3)C(=O)N(C)CC(=O)N[C@@H](CCc3cc(F)c(C(F)(F)F)c(F)c3)C(=O)N2C1 [PP1174]
- HRAS/KRAS (ratio of KD value with respect to HRAS to KD value with respect to KRAS) [1, 3]: B (a compound having 3 or more and less than 10 is denoted as B)
- NRAS/KRAS (ratio of KD value with respect to NRAS to KD value with respect to KRAS) [2, 4]: B (a compound having 3 or more and less than 10 is denoted as B)

Structure (SMILES): CC[C@H](C)[C@@H]1NC(=O)[C@H](CC(F)(F)F)N(C)C(=O)C[C@@H](C(=O)N(C)C)N(C)C(=O)[C@H](C2CCCC2)N(C)C(=O)C2(CC(C)(C)C2)NC(=O)[C@@H]2C[C@@H](F)CN2C(=O)[C@H](CCc2cc(F)c(C(F)(F)F)c(F)c2)NC(=O)CN(C)C(=O)[C@H](Cc2ccc(C(F)(F)F)cc2)N2CC/C=C\C[C@@H](C2=O)N(C)C(=O)CN(C)C1=O [PP1688]
- HRAS/KRAS (ratio of KD value for HRAS to KD value for KRAS) [1, 3]: A (a compound having 10 or more and less than 20 is denoted as A)
- NRAS/KRAS (ratio of KD value for NRAS to KD value for KRAS) [2, 4]: A (a compound having 10 or more and less than 20 is denoted as A)

Structure (SMILES): CCC[C@H]1C(=O)N[C@@H]([C@@H](C)CC)C(=O)N(C)CC(=O)N(C)[C@H]2C/C=C\CCN(C2=O)[C@@H](Cc2ccc(C(F)(F)F)cc2)C(=O)N(C)CC(=O)N[C@@H](CCc2ccc(C(F)(F)F)c(Cl)c2)C(=O)N2CC3(CC3)C[C@H]2C(=O)NC2(CC(C)(C)C2)C(=O)N(C)[C@@H]([C@@H](C)CC)C(=O)N(C)[C@H](C(=O)N(C)C)CC(=O)N1C [PP2983]
- HRAS/KRAS (ratio of KD value with respect to GDP-bound HRAS wild-type protein to KD value with respect to KRAS) [1, 5]: A (a compound having 10 or more and less than 20 is denoted as A)
- NRAS/KRAS (ratio of KD value with respect to GDP-bound NRAS wild-type protein to KD value with respect to KRAS) [2, 5]: AA (a compound having 20 or more is denoted as AA)

Structure (SMILES): CCCN1C(=O)CN(C)C(=O)CNC(=O)[C@H]([C@@H](C)CC)NC(=O)[C@H](CC(C)C)N(C)C(=O)C[C@@H](C(=O)N(C)C)NC(=O)[C@H](C2CCCC2)N(C)C(=O)C2(CCCC2)NC(=O)[C@@H]2CCCN2C(=O)[C@H](CCc2ccc(C(F)(F)F)c(Cl)c2)NC(=O)CN(C)C(=O)[C@@H]1Cc1ccc(C(F)(F)F)cc1 [PP0361] ([NMeL]IG[Sar][NPrPhe(4-CF3)][Sar][hPhe(3-Cl-4-CF3)]P[Ac5c][NMeGly(cPent)]D-NMe2; lactam N-11)
- HRAS/KRAS (ratio of KD for GDP-bound HRAS wild-type to KD for KRAS) ([1]; SPR): C (A compound having a KD ratio of 0.1 or more and less than 3 is denoted as C)
- NRAS/KRAS (ratio of KD for GDP-bound NRAS wild-type to KD for KRAS) ([2]; SPR): B (a compound having 3 or more and less than 10 is denoted as B)

Structure (SMILES): CC[C@H](C)[C@@H]1NC(=O)[C@H](CC(C)C)N(C)C(=O)C[C@@H](C(=O)N2CCOCC2)N(C)C(=O)[C@H](C2CCCC2)N(C)C(=O)C2(CCCC2)NC(=O)[C@@H]2CCCN2C(=O)[C@H](CCc2ccc(C(F)(F)F)c(Cl)c2)NC(=O)CN(C)C(=O)[C@H](Cc2ccc(OC(F)(F)F)cc2)N2CCCC[C@@H](C2=O)N(C)C(=O)CN(C)C1=O [PP0536]
- HRAS/KRAS (ratio of KD value with respect to GDP-bound HRAS wild-type protein to KD value with respect to KRAS) ([1]; SPR): B (a compound having 3 or more and less than 10 is denoted as B)
- NRAS/KRAS (ratio of KD value with respect to GDP-bound NRAS wild-type protein to KD value with respect to KRAS) ([2]; SPR): B (a compound having 3 or more and less than 10 is denoted as B)
